# Results published in patent publication US20220023293A1, “EZH2- FGFR INHIBITION IN CANCER” (Stichting Het Nederlands Kanker Instituut-Antoni van …, priority 2018, published 2022).
# Columns and labels:
# [1] = test system: BAP1 deficient mesothelioma cells; test: short term assay, drug response curve (Alamar blue), 384-well; format: cell-based, mouse; settings: single agent; BNC versus NC derived early passage cell lines; FIG. 4B, 4C
# Experimental: For short term colony formation assay, the mesothelioma cell lines were seeded in 500 cells per well in a 384-well plate. The next day drugs (GSK126, AZD4547, AZD2461, ABT-263) were added in a matrix format at the indicated concentration using HP D300 digital dispenser (HP) and cells were grown in presence of drug(s) or DMSO control for 5 days. Thereafter, 10% v/v Alamar blue was added to the well and incubated at 370 C for 4 hours. The plates were read with Tecan reader. The data were analyzed and plotted for drug response curve.
# FGF7, FGF2 and FGFR2 = test: gene expression analysis (RNA sequencing) after EZH2 inhibitor treatment; format: cell-based, mouse; settings: GSK126 treated versus DMSO treated Bap1 deficient cells; log 2 expression; FIG. 4E
# Experimental: For gene expression analysis, RNA was isolated from tumor tissue with the Qiagen All prep DNA/RNA kit. Quantification and quality assessment for RNA were performed with a Bioanalyzer (RIN >6.5) (Agilent, Santa Clara, Calif., USA).
# Sequencing libraries were constructed with a TruSeq mRNA Library Preparation Kit using poly-A-enriched RNA (Illumina, San Diego, Calif., USA). The samples were run on a HiSeq 2500 Illumina sequencer for cluster generation and sequencing.
# For RNA sequencing and expression analysis, Illumina TruSeq mRNA libraries were sequenced with 51 base single reads on a HiSeq2000 using V3 chemistry (Illumina Inc., San Diego). The sequence reads were mapped to the mouse genome (mm10), using TopHat (2.0.12). TopHat was run with default. Reads with mapping quality less than 10 and non-primary alignments were discarded. Remaining reads were counted using HTSeq-cout. Statistical analysis of the differential expression of genes was performed using DESeq2. Genes with False Discovery Rate (FDR) for differential expression lower than 0.05 were considered significant. Batch effect within tumor samples from different source was corrected using ComBat with default options through the Bioconductor sva package 3.10.
SMILES,drug response of BAP1 deficient versus proficient mesothelioma cells (dose response curve) [1],"expression of FGF/FGFR pathway genes (FGF7, FGF2, FGFR2) (FGF7, FGF2 and FGFR2)"
"COc1cc(CCc2cc(NC(=O)c3ccc(N4C[C@@H](C)N[C@@H](C)C4)cc3)n[nH]2)cc(OC)c1 [AZD4547, N-[5-[2-(3,5-dimethoxyphenyl)ethyl]-1H-pyrazol-3-yl]-4-[(3R,5S)-3,5-dimethylpiperazin-1-yl]benzamide]",hypersensitive,
"CC[C@H](C)n1cc(C)c2c(C(=O)NCc3c(C)cc(C)[nH]c3=O)cc(-c3ccc(N4CCNCC4)nc3)cc21 [GSK126, 1-[(2S)-butan-2-yl]-N-[(4,6-dimethyl-2-oxo-1H-pyridin-3-yl)methyl]-3-methyl-6-(6-piperazin-1-ylpyridin-3-yl)indole-4-carboxamide]",hypersensitive,upregulation of FGF/FGFR pathway genes
